Results on 17 compounds are retold here after patent publication US8372840B2, “Potassium channel blockers” (Xention Limited, priority 2008, dated 2013).

One assay concerns the target T1, human Kv1.3 (Homo sapiens, UniProt P22001).
T1 construct: expressed in transfected cells; host or cells: stably transfected cells grown in medium for CHO cells
Kind of assay: Kv1.3 Autopatch Electrophysiology (whole cell patch-clamp, stably transfected CHO cells). The format is cell-based. Conditions: compound 1 μM, step to +30 mV for 500 ms, inhibition of total charge relative to control, room temperature; for inhibition at 1 µM: CHO, read-out: hKv1.3 % inh. As for the experimental part:
Cells stably transfected with cDNA for human Kv1.3 (in pcDNA3.1) were grown in Ex-cell 302 serum-free medium for CHO cells, supplemented with 10 μl/ml [100×] glutamine, 500 μg/ml G418 ([…]), and 1% HT supplement (50×, hypoxanthine and thymidine). Compounds were tested on these cells using the AutoPatch technology in whole cell mode.
The external bathing solution contained (in mM): 150 NaCl, 10 KCl, 1 MgCl2, 3 CaCl2, 10 HEPES, pH 7.4 with NaOH. Patch pipettes were filled with an electrode solution of composition (in mM): 100 K-Gluconate, 20 KCl, 1 MgCl2, 1 CaCl2, 10 HEPES, 11 EGTA, 5 ATP-Na2, 2 Glutathione pH 7.2 with KOH.
Compounds were dissolved in DMSO (100%) and made up in the external bather at a concentration of 1 μM immediately prior to use. All experiments were conducted at room temperature.
A cell suspension (10 ml), with a density of 6×10^6 cells, was aliquoted into a 15 ml centrifuge tube and stored at 4° C. before use. Prior to use a tube was taken and centrifuged at 1000 rpm for 4 mins at room temperature. The supernatant was then discarded, leaving a cell pellet at the bottom of the tube. The pellet was then resuspended using 1 ml of cold (4° C.), filtered (0.22 μm), 0.05% BSA/bather solution (0.05 g BSA/100 ml bather). The bottom of the tube was manually agitated followed by gentle tituration. The cell suspension was then placed in the AutoPatch™ temperature controlled cell-hotel at 14° C. and regularly titurated.
A length of Teflon capillary tubing was dipped into the cell suspension solution, and a column of fluid was taken up by negative pressure. The column of fluid was in electrically connectivity with a Ag/AgCl reference electrode. Borosilicate glass patch pipettes (from 1.5 mm OD, thin-walled filamented, GC150-TF capillary glass, Harvard) were pulled using a DMZ pipette puller (Zeitz Instruments), and were back-filled using the internal pipette solution, being careful that no bubbles remained at the tip or in the body of the pipette. Patch pipettes typically had resistances of 2.5-3.5 MΩ. Once filled, the pipette tip and a proportion of the shaft (˜15 mm) were dipped into Sigmacote (Sigma). The recording pipettes were placed in a multiwell array and mounted on the AutoPatch™ machine. Automated patch-clamping and drug-application was initiated by the operator, but thereafter AutoPatch.exe continued the experiment providing that pre-set conditions and criteria were satisfied.
Whole cell patch-clamp recordings were made using the AutoPatch™ rig, which incorporated an EPC9 or EPC10 amplifier (HEKA, Germany) under control of Pulse software (v8.54 or v8.76, HEKA, Germany), a cell applicator, automated drug application system (DAS), valve controller (VF1) and a suction device all at room temperature. This equipment was completely under the control of AutoPatch.exe and operator intervention was only made when there was a requirement to refill the bather reservoirs or to prevent the loss of a cell due to a technical error.
Qualification stages prior to perfusion and drug application ensured that the observed current met the criteria for the experiment. Cells were continuously perfused with external solution at a flow rate of ˜2 ml/minute.
Electrophysiology voltage-step protocols and analysis of data was performed as follows. Data were sampled at 5 kHz, and filtered with a −3 dB bandwidth of 2.5 kHz. Cells were held at a voltage of −80 mV. Currents were evoked by a voltage step to +30 mV for 500 ms in duration applied every 15 s. Online analysis of the hKv1.3 current during the application of compounds was performed by the Pulse (v8.54 or v8.76, HEKA, Germany), Excel (Microsoft, USA) and AutoPatch™ software, with the total charge measured during the whole of voltage step Inhibition of charge movement in the presence of drug was calculated relative to control.
For orientation: Patch clamp records ionic current or voltage across a cell membrane.

Another assay deals with hKv1.5 (Homo sapiens, UniProt P22460). Description: Kv1.5 Autopatch Electrophysiology (whole cell patch-clamp). The format is cell-based. The conditions noted are these: compound 1 μM, step to 0 mV for 1000 ms, total charge, room temperature (22-24° C.); for inhibition at 1 µM: read-out: hKv1.5 % inh. How it is done:
The external bathing solution contained (in mM): 150 NaCl, 10 KCl, […], 3 MgCl2, 1 CaCl2, 10 HEPES, pH 7.4. Patch pipettes were filled with an electrode solution of composition (in mM): 160 KCl, 0.5 MgCl2, 10 HEPES, 1 EGTA, pH 7.4 with KOH.
Compounds were dissolved in DMSO (100%) and made up in the external bather at a concentration of 1 μM. All experiments were conducted at room temperature (22-24° C.).
A cell suspension (10 ml), with a density of 100,000 cells/ml, was aliquoted into a 15 ml centrifuge tube and transferred to an incubator (37° C., 5% CO2) for approximately one hour before use. Following 60 min incubation, a tube was taken and centrifuged at 1000 rpm for 4 mins at room temperature. 9.5 ml supernatant was thence discarded, leaving a cell pellet at the bottom of the tube. The pellet was then resuspended using 100 μl of cold (4° C.), filtered (0.22 μm), 0.2% BSA/bather solution (0.02 g BSA/10 ml bather). The bottom of the tube was manually agitated gently until the solution became cloudy with cells. The 100 μl cell resuspension solution was then stored on the bench at 4° C. (using a Peltier-based temperature control device) until used.
A length of capillary glass (1B150E-4, WPI) was dipped into the cell suspension solution, such that ˜3 cm column of fluid was taken up by capillary action. A Ag/AgCl wire was dropped into the non-dipped end of the capillary also. The outside of the solution-filled end of the capillary was then dried and the capillary was loaded into the AutoPatch™
Borosilicate glass patch pipettes (from 1.5 mm OD, thin-walled filamented, GC150-TF capillary glass, Harvard) were pulled using a DMZ pipette puller (Zeitz Instruments), and were back-filled using the internal pipette solution, being careful that no bubbles remain at the tip or in the body of the pipette. Patch pipettes typically had resistances of 2.3-3.5 MΩ. Once filled, the pipette tip and a proportion of the shaft (˜15 mm) were dipped into Sigmacote (Sigma). The recording pipette was then loaded into the AutoPatch™. Automated patch-clamping was initiated by the operator, but thereafter AutoPatch.exe continued the experiment providing that pre-set conditions and criteria were satisfied.
Whole cell patch-clamp recordings were made using the AutoPatch™ rig, which incorporated an EPC9 amplifier (HEKA, Germany) under control of Pulse software (v8.54, HEKA, Germany), a motion controller with 2 translators (Newport, UK), valve controller (VF1) and a c-level suction device all at room temperature (22-24° C.). This equipment was completely under the control of AutoPatch.exe and operator intervention was only made when there was a requirement to refill the drug reservoirs or to prevent the loss of a cell due to a technical error. Cells with an Rseries greater than 18 MΩ were discounted from the experiment.
Qualification stages prior to perfusion and drug application ensured that the observed current met the criteria for the experiment. Only those cells with an IK>500 pA were used for experiments. Cells were continuously perfused with external solution at a flow rate of 1.8-2 ml/minute. […] Online analysis of the hKv1.5 current during the application of compounds was performed by the AutoPatch™ software. Voltage-step protocols and analysis of data was performed as described for conventional electrophysiology.
Electrophysiology voltage-step protocols and analysis of data was performed as follows. Data was sampled at 5 kHz, and filtered with a −3 dB bandwidth of 2.5 kHz. Cells were held at a voltage of −80 mV. Currents were evoked to a voltage step for 1000 ms in duration at 0 mV every 5 s. Currents were analysed using Pulsefit software (v8.54, HEKA, Germany), with the total charge measured during the whole of the voltage step. All other plots were produced using Igor Pro (WaveMetrics).

hKv1.5, sequence (P22460 whole entry): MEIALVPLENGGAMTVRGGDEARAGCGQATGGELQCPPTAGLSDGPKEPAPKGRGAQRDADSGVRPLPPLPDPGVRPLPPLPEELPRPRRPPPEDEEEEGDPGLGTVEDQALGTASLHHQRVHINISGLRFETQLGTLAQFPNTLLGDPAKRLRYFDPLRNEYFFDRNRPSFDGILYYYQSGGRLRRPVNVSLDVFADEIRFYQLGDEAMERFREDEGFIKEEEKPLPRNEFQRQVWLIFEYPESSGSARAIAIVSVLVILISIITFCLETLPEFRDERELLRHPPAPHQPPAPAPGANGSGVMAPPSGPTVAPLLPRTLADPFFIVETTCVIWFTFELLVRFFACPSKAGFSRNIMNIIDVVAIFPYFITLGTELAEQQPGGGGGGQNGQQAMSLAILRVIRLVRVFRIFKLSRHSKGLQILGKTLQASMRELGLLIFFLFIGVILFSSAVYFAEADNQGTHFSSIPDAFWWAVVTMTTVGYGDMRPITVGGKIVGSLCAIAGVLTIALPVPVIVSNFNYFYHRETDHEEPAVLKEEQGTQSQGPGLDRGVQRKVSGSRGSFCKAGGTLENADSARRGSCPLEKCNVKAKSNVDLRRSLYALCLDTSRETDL
T1 sequence (P22001 whole entry): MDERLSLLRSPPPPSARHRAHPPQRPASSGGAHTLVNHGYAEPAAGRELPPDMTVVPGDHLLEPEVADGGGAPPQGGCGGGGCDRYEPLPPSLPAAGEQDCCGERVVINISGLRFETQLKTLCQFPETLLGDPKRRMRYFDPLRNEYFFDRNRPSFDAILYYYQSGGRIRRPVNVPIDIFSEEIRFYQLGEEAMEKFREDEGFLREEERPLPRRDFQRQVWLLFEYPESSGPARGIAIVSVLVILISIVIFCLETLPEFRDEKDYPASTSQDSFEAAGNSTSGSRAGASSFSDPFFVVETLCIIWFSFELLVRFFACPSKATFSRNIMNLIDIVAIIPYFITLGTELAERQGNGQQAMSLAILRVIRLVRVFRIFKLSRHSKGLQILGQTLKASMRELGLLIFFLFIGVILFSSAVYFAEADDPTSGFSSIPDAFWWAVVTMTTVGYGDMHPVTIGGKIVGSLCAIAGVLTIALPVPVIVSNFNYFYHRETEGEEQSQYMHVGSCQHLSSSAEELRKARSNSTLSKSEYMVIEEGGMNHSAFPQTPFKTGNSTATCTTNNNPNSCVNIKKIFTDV

The compound “1-Methyl-1H-pyrazole-3-sulfonic acid (4-chloro-benzyl)-[3-(2-oxo-pyrrolidin-1-yl)-phenyl]-amide [Example 38]” came in with a hKv1.3 % inh. on human Kv1.3 of 96%. Also, the hKv1.5 % inh. at hKv1.5 is given as 71%.

Regarding “Pyridine-3-sulfonic acid benzyl-[3-(4-phenyl-piperazin-1-yl)-phenyl]-amide [Example 16]”, on human Kv1.3, the hKv1.3 % inh. is given as 97%. At hKv1.5, this compound had a hKv1.5 % inh. of 91%.

Regarding `Cn1ccc(S(=O)(=O)N(Cc2ccc(Cl)cc2)c2cccc(OCC(=O)NC3CC3)c2)n1` [Example 51, 2-{3-[(4-Chloro-benzyl)-(1-methyl-1H-pyrazole-3-sulfonyl)-amino]-phenoxy}-N-cyclopropyl-acetamide], the inhibition at 1 µM was 83% at human Kv1.3 and 72% at hKv1.5.

Take `O=C(Cc1ccccc1)Nc1cccc(N(Cc2ccccc2)S(=O)(=O)c2ccccc2)c1` [Example 11, N-[3-(Benzenesulfonyl-benzyl-amino)-phenyl]-2-phenyl-acetamide]: the values for the inhibition at 1 µM at human Kv1.3 and at hKv1.5 were 86% and 77%, respectively.

For the compound `Cn1ccc(S(=O)(=O)N(Cc2ccc(Cl)cc2)c2cccc(OCC(=O)Nc3ccccn3)c2)n1` [Example 49, 2-{3-[(4-Chloro-benzyl)-(1-methyl-1H-pyrazole-3-sulfonyl)-amino]-phenoxy}-N-pyridin-2-yl-acetamide], the inhibition at 1 µM on human Kv1.3 is 95%; on hKv1.5, 99%.

Turning to “N-(4-Chloro-benzyl)-3-cyano-4-fluoro-N-[3-(2-oxo-imidazolidin-1-yl)-phenyl]-benzenesulfonamide [Example 45]”, at human Kv1.3, the hKv1.3 % inh. came out at 100%. For the same compound, the hKv1.5 % inh. at hKv1.5 was found to be 95%.

Consider `Cc1nc(S(=O)(=O)N(Cc2ccccc2)c2cccc(N3CCOCC3)c2)cn1C` [Example 19, 1,2-Dimethyl-1H-imidazole-4-sulfonic acid benzyl-(3-morpholin-4-yl-phenyl)-amide], for which the inhibition at 1 µM at human Kv1.3 is 75%; on hKv1.5 it was 42%.

Compound “1-Methyl-1H-pyrazole-3-sulfonic acid benzyl-(3-morpholin-4-yl-phenyl)-amide [Example 41]” displayed a hKv1.3 % inh. on human Kv1.3 of 92%. The hKv1.5 % inh. at hKv1.5 is recorded as 33%.

Regarding “Pyridine-3-sulfonic acid (4-chloro-benzyl)-[3-(2-oxo-imidazolidin-1-ylbenzyl)-[3-(2-oxo-imidazolidin-1-yl)-phenyl]-amide [Example 48]”, the hKv1.3 % inh. at human Kv1.3 is reported as 96%. Further, the hKv1.5 % inh. on hKv1.5 came out at 89%.

Regarding `Cn1ccc(S(=O)(=O)N(Cc2ccc(Cl)cc2)c2cccc(OCC(=O)NC3CCC3)c2)n1` [Example 50, 2-{3-[(4-Chloro-benzyl)-(1-methyl-1H-pyrazole-3-sulfonyl)-amino]-phenoxy}-N-cyclobutyl-acetamide], the inhibition at 1 µM at human Kv1.3 is 94%; at hKv1.5, 79%.

With `Cn1ccc(S(=O)(=O)N(Cc2ccc(Cl)cc2)c2cccc(OCc3ccccn3)c2)n1` [Example 6, 1-Methyl-1H-pyrazole-3-sulfonic acid (4-chloro-benzyl)-[3-(pyridin-2-ylmethoxy)-phenyl]-amide], the figures for the inhibition at 1 µM on human Kv1.3 and on hKv1.5 were 91% and 72%, respectively.

Turning to “1-Methyl-1H-imidazole-4-sulfonic acid (4-chloro-benzyl)-(3-morpholin-4-yl-phenyl)-amide [Example 36]”, the hKv1.3 % inh. on human Kv1.3 came out at 83%. At hKv1.5, this compound displayed a hKv1.5 % inh. of 44%.

At human Kv1.3, “4-Methyl-3,4-dihydro-2H-benzo[1,4]oxazine-7-sulfonic acid benzyl-[3-(2-oxo-pyrrolidin-1-yl)-phenyl]-amide [Example 18]” yielded a hKv1.3 % inh. of 65%. The hKv1.5 % inh. at hKv1.5 is 56%.

At human Kv1.3, “N-Benzyl-3-cyano-4-fluoro-N-[3-(2-oxo-imidazolidin-1-yl)-phenyl]-benzenesulfonamide [Example 44]” returned a hKv1.3 % inh. of 90%. At hKv1.5, this compound registered a hKv1.5 % inh. of 72%.

Take `Cn1cnc(S(=O)(=O)N(Cc2ccc(Cl)cc2)c2ccc(F)c(N3CCCC3=O)c2)c1` [Example 4, 1-Methyl-1H-imidazole-4-sulfonic acid (4-chloro-benzyl)-[4-fluoro-3-(2-oxo-pyrrolidin-1-yl)-phenyl]-amide]: the inhibition at 1 µM on human Kv1.3 amounted to 61%.

In the case of “1-Methyl-1H-pyrazole-3-sulfonic acid (4-chloro-benzyl)-(3-morpholin-4-yl-phenyl)-amide [Example 40]”, the hKv1.3 % inh. on human Kv1.3 came to 99%. The hKv1.5 % inh. at hKv1.5 is on record as 95%.

“1-Methyl-1H-pyrazole-3-sulfonic acid benzyl-[3-(2-oxo-pyrrolidin-1-yl)-phenyl]-amide [Example 39]” came in with a hKv1.3 % inh. on human Kv1.3 of 74%.
